Here are results for seven compounds from publication PMC5176352, “Structural basis for subtype-specific inhibition of the P2X7 receptor” (eLife, 2016).

One assay concerns the target full length pdP2X7 (Ailuropoda melanoleuca, UniProt G1M6C4). Put plainly: YO-PRO-1 uptake assay (inhibition of ATP-triggered dye uptake). In kind it is cell-based, giant panda (Ailuropoda melanoleuca). The text has this:
We further validated the drug-receptor interactions by site-directed mutagenesis on the drug-binding residues. To facilitate robust and systematic data collection, we monitored cellular uptake of the fluorescent dye, YO-PRO-1, as a proxy for receptor activity ([Surprenant et al., 1996]) (Figure 3—figure supplement 4A). […] In particular, interaction with F103 is crucial for the inhibitory action of all five drugs.
(§1) Human embryonic kidney (HEK293) cells were maintained in DMEM medium (Thermo Fisher Scientific) supplemented with 10% FBS (Atlanta Biologicals, Flowery Branch, GA), and 10 μg/mL gentamicin (Thermo Fisher Scientific). HEK293 cells were split into six well plates at a cell density of 2.0 × 10^6 cells/well and incubated overnight. […] Cells were washed with assay buffer (2 mM KCl, 0.1 mM CaCl2, 13 mM Glucose, 147 mM NaCl, 10 mM HEPES (pH 7.3)) and were incubated with 5 μM YO-PRO-1 Iodide (Thermo Fisher Scientific), in the presence or absence of antagonists at multiple concentrations at 37°C for 10 min. Upon application of 1 mM ATP (final), uptake of YO-PRO-1 was recorded with 1 min intervals by following the fluorescence change using a Synergy HT multi-detection microplate reader (Bio-Tek, Winooski, VT; Ex: 485 nm/20, Em:528 nm/20, sensitivity 60). To obtain the dose dependent uptake inhibition by antagonists, the initial rates of YO-PRO-1 uptake were plotted against multiple concentrations of the P2X7 specific drugs. The inhibition curves from five independent measurements were fitted to the Hill equation using Origin software (Originlab, Northampton, MA) to determine the IC50 values.

The target of a further assay is wildtype pdP2X7 (Ailuropoda melanoleuca, UniProt G1M6C4). In words: BzATP dose response of YO-PRO-1 uptake with antagonists, fitted with competitive / non-competitive inhibition models. In kind it is cell-based, giant panda (Ailuropoda melanoleuca). Particulars: for Kb: curve fitting of BzATP dose responses.
Description: To clarify the working mechanism for each drug, we measured the dose responses of the P2X7 mediated YO-PRO-1 uptake in the presence of each drug at multiple concentrations. We used BzATP—an artificial but potent agonist of P2X7 receptors—for these experiments to achieve saturating responses in the presence of concentrated antagonist.
as §1
Dose response curves of the YO-PRO-1 uptake experiments were fitted with either competitive or non-competitive inhibition models using Origin 6.0 software (OriginLab) as previously described ([Kenakin, 2006]). For the competitive antagonism model, we used the equation: Response=[A]/KA/[A]KA(1+τ)+[B]/KB+1
where [A] , [B] are the concentrations of BzATP and antagonists, respectively; KA and KB are the equilibrium dissociation-constant of BzATP and antagonists, respectively. […] KB was then determined using the dose response curves in the presence of antagonists. […] For the non-competitive inhibition model, we used the equation: Response=([A]^nτ^nEmax)/([A]^nτ^n+([A](1+α[B]/KB)+KA[B]/KB+KA)^n
where n is the Hill coefficient, and Emax is the maximum initial rate. […] Schild regression analysis was performed as described previously ([Wyllie and Chen, 2007]). Briefly, concentrations of BzATP at half maximal initial rates of YO-PRO-1 uptake in the presence (EC50’) or absence (EC50) of antagonists were determined by fitting the dose responses with the Hill equation.

The next assay has as its target P2X7 receptor. On the set-up: method as in Yan et al., 2010. The note with it: under physiological ion concentrations; ref Yan et al., 2010; read-out: EC50 for initial activation; cited from earlier work.
A further assay concerns the target T1, pdP2X7 (Ailuropoda melanoleuca, UniProt G1M6C4).
T1 sequence (G1M6C4 2-606): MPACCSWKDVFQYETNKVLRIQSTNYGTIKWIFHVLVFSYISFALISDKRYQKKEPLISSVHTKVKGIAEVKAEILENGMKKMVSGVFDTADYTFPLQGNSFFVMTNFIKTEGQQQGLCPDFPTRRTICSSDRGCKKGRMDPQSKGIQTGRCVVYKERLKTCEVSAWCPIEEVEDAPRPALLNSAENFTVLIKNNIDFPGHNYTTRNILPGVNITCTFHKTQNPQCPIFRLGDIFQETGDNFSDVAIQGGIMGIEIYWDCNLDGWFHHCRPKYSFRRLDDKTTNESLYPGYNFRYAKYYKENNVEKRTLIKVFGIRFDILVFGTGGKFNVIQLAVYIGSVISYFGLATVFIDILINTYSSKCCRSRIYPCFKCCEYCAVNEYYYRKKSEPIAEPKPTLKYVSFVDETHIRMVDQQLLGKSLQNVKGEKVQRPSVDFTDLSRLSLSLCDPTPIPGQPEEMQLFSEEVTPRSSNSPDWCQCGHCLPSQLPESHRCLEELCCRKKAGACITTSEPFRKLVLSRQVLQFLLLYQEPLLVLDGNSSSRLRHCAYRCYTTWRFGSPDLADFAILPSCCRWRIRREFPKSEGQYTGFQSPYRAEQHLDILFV
In words: Whole cell patch clamp ATP dose response.

Another assay has as its target T2, pdP2X7cryst (Ailuropoda melanoleuca, UniProt G1M6C4, E175K/N242S/N285S/R126A/V36A).
T2 sequence (G1M6C4 23-360 V36A/R126A/E175K/N242S/N285S): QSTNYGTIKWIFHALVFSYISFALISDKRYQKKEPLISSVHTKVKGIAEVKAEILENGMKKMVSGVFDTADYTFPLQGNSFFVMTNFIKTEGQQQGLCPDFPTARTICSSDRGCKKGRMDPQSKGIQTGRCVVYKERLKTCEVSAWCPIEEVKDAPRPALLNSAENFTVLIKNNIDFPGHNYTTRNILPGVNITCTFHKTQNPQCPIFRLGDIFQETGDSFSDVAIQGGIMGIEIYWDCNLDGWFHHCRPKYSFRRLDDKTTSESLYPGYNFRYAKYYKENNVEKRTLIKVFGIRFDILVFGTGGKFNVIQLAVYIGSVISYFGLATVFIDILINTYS
In words: Whole cell patch clamp ATP dose response.

The mark [1] stands for this setting: HEK293 cells, YO-PRO-1 uptake initiated with 1 mM ATP, initial rates, wildtype, read-out: IC50.
[2] abbreviates: competitive model, read-out: KB (equilibrium dissociation-constant of antagonist), competitive antagonism model.
The mark [3] stands for this setting: non-competitive model, α = 1, read-out: KB (equilibrium dissociation-constant of antagonist), non-competitive inhibition model.
Setting [4] is: KB (equilibrium dissociation-constant of antagonist), competitive antagonism model, competitive model.
[5] abbreviates: KB (equilibrium dissociation-constant of antagonist), non-competitive inhibition model, non-competitive model, α = 1.
[6] abbreviates: data without antagonists, non-competitive model equation.
Where [7] appears, read: dose response without antagonist, competitive model equation.

Usually IC50 stands for the concentration needed to halve the response being measured. A word on the Kb: it is the affinity of an antagonist, worked out from how it opposes an agonist. The term EC50 denotes the concentration that produces a half-maximal response.

Where two headings read alike, the source gives them in different places.

`COc1ccc(CC(=O)NC(N/C(=N/C#N)Nc2cccc3ncccc23)C(C)(C)C)cc1OC` (centres unmarked) [A740003, N-(1-{[(cyanoimino)(5-quinolinylamino)methyl]amino}-2,2-dimethylpropyl)-2-(3,4-dimethoxyphenyl)acetamide]: the 50% inhibitory concentration (IC50) on full length pdP2X7 (setting [1]) came to 0.0693 µM. Moreover, the results for the antagonist dissociation constant (Kb) on wildtype pdP2X7 (setting [2]) and on wildtype pdP2X7 (setting [3]) were 0.024 µM and 1.2 µM, respectively.
Consider `C[C@H](N/C(=N/C#N)Nc1cccc2ncccc12)c1ccccc1` [A804598, 2-cyano-1-[(1S)-1-phenylethyl]-3-quinolin-5-ylguanidine], for which the 50% inhibitory concentration (IC50) on full length pdP2X7 (setting [1]) is 0.0217 µM. The antagonist equilibrium constant (Kb) is 0.015 µM on wildtype pdP2X7 (setting [2]) and 0.57 µM at wildtype pdP2X7 (setting [3]).
`Nc1ncnc2c1ncn2[C@@H]1O[C@H](COP(=O)(O)OP(=O)(O)OP(=O)(O)O)[C@@H](O)[C@H]1O` [ATP, adenosine triphosphate]: the concentration for a half-maximal effect (EC50) at P2X7 receptor was not below 1000 µM; at pdP2X7, 122 µM; at pdP2X7cryst, 40 µM.
On to `O=C(CC12CC3CC(CC(C3)C1)C2)Nc1cccc2nc(NCCNCCO)ccc12` [AZ10606120], for which the IC50 at full length pdP2X7 came to 0.231 µM. For the same compound, the results for the antagonist dissociation constant (Kb) at wildtype pdP2X7 (setting [4]) and at wildtype pdP2X7 (setting [5]) were 0.056 µM and 3.4 µM, respectively.
Turning to `Nc1ncnc2c1ncn2[C@@H]1O[C@H](COP(=O)(O)OP(=O)(O)OP(=O)(O)O)[C@@H](OC(=O)c2ccc(C(=O)c3ccccc3)cc2)[C@H]1O` [BzATP], on wildtype pdP2X7 (setting [6]), the “KA (equilibrium dissociation-constant of BzATP), non-competitive inhibition model” value stood at 220 µM; the “n (Hill coefficient), non-competitive inhibition model” value came to 2.6; the “τ, non-competitive inhibition model” value turned out to be 10. At wildtype pdP2X7 (setting [7]), the “KA (equilibrium dissociation-constant of BzATP), competitive antagonism model” value stood at 28 µM and the “τ, competitive antagonism model” value is 0.031.
For `Cc1ccc(CN2CCNCC2)cc1NC(=O)CNc1ccc(F)c(F)c1` [GW791343], at full length pdP2X7, the half-inhibitory concentration (IC50) is 8.9 µM. For the same compound, the Kb at wildtype pdP2X7 (setting [4]) was 3 µM; at wildtype pdP2X7 (setting [5]), 266 µM.
`O=C(NCC1(N2CCN(c3ccccc3)CC2)CCOCC1)c1cccnc1Sc1ccccc1` [JNJ47965567]: the IC50 at full length pdP2X7 came to 0.0119 µM. The figures for the antagonist equilibrium constant (Kb) on wildtype pdP2X7 (setting [4]) and on wildtype pdP2X7 (setting [5]) were 0.0017 µM and 0.14 µM, respectively.
